Experimental data reported in patent US20040023922A1, “Lipids for modulating immune response” (priority 2000, published 2004).
“And” between values parts separate entries of the source, which are not always exact repeats. Identical values can stand only once.

tested on: Female Balb/c mice; experiment: Adjuvanticity of lipids: serum anti-KLH IgA, IgG, IgM ELISA (Example 7); format: in vivo; conditions: serum day 7 after booster; 5 μl lipid + 45 μl saline + 50 μl KLH (2 mg/ml), week 0 and week 2; control KLH + Saline = 1
Description: The objective of this study was to investigate the adjuvanticity of 19 different lipids.
Female Balb/c mice, 6-8 weeks and weighing about 20-22 gms were used and maintained on a normal mouse diet throughout the study.
There were 22 groups of mice marked alphabetically from A-V. Group A (8 mice) was the negative control (KLH+Saline), Group B (8 mice) was the positive control (KLH+IFA). Groups C-V were the experimental groups containing 6 mice each. 100 μl of antigen preparation comprising of 5 μl lipid+45 μl saline+50 μl (2 mg/ml KLH) was administered to 20 groups of 6 mice each, on week 0 followed by a boost on week 2.
On day 7 and day 21 after the booster dose, the mice were tail bled, the serum separated, aliquoted and stored at 4° C.
The specific anti-KLH IgG and IgM antibody content of each individual serum sample was determined in an established ELISA assay and standardised against a positive control antiserum obtained by hyperimmunisation of mice with KLH (100 μg) in Freund's incomplete adjuvant. Plates were coated with KLH at 2 μg/ml and incubated with four twofold dilutions of samples (100 μl) at 37° C. for 2 hours. The initial dilution of serum samples was 1:50 for IgA assay and 1:100 for IgG and IgM assays. […] IgA and IgM were used at 1:1000 and IgG at 1:2000 for 2 hours at 37° C. The results were expressed as antibody units calculated from the standard curve obtained from pooled immune mouse serum given an arbitrary antibody value of 100,000 IgA units/ml and 1×10^6 IgG and IgM units/ml. The standard curve was diluted from 1:100 to 1:3200 for IgA, 1:4000 to 1:256,000 for IgG and 1:1000 to 1:32000 for IgM samples. The value for each sample dilution falling on standard curve was calculated and the mean taken as the value for the sample.
Results are given in the form of histograms (FIGS. 9 to 14), plotting the Ig response (units/ml) against the trial grouping. […] The number signifies multiples of the control response.

Compound | Day 7 Results IgA, score as multiples of the control response
CCCCCCCCCCCCCCCCCC(=O)OC[C@H](COP(=O)(O)OCCN)OC(=O)CCCCCCCCCCCCCCCCC [PES, L-α-Phosphatidylethanolamine, distearoyl] | 15
CCCCCCCCCCCCC/C=C/[C@@H](O)[C@H](CO)NC(=O)CCCCCCCCCCCCCCC [PS, N-Palmitoyl-d-sphigosine] | 35
CCCCCCCCCCCCCC(=O)OCC(COC(=O)CCCCCCCCCCCCC)OC(=O)CCCCCCCCCCCCC [TM, Trymyristin] | 6
CCCCCCCCCCCCCCCC(=O)OCC(COC(=O)CCCCCCCCCCCCCCC)OC(=O)CCCCCCCCCCCCCCC [TPaL, Tripalmitin] | 3
CCCCCCCCCCCCCCC(=O)OCC(COC(=O)CCCCCCCCCCCCCC)OC(=O)CCCCCCCCCCCCCC [TPeN, Tripentadecanoin] | 11

same assay, conditions: serum day 7 after booster; control KLH + Saline = 1

Compound | Day 7 Results IgG, score as multiples of the control response | Day 7 Results IgM, score as multiples of the control response
CCCCCCCCCCCCCCCCCC(=O)OC[C@H](COP(=O)(O)OCCN)OC(=O)CCCCCCCCCCCCCCCCC [PES, L-α-Phosphatidylethanolamine, distearoyl] | 6 | 1
CCCCCCCCCCCCC/C=C/[C@@H](O)[C@H](CO)NC(=O)CCCCCCCCCCCCCCC [PS, N-Palmitoyl-d-sphigosine] | 3 | 2
CCCCCCCCCCCCCC(=O)OCC(COC(=O)CCCCCCCCCCCCC)OC(=O)CCCCCCCCCCCCC [TM, Trymyristin] | 4 | 1
CCCCCCCCCCCCCCCC(=O)OCC(COC(=O)CCCCCCCCCCCCCCC)OC(=O)CCCCCCCCCCCCCCC [TPaL, Tripalmitin] | 4 | 1
CCCCCCCCCCCCCCC(=O)OCC(COC(=O)CCCCCCCCCCCCCC)OC(=O)CCCCCCCCCCCCCC [TPeN, Tripentadecanoin] | 4 | 2

same assay, conditions: serum day 21 after booster; control KLH + Saline = 1

Compound | Day 21 Results IgA, score as multiples of the control response | Day 21 Results IgG, score as multiples of the control response | Day 21 Results IgM, score as multiples of the control response
CCCCCCCCCCCCCCCCCC(=O)OC[C@H](COP(=O)(O)OCCN)OC(=O)CCCCCCCCCCCCCCCCC [PES, L-α-Phosphatidylethanolamine, distearoyl] | 2 | 7 | 1
CCCCCCCCCCCCC/C=C/[C@@H](O)[C@H](CO)NC(=O)CCCCCCCCCCCCCCC [PS, N-Palmitoyl-d-sphigosine] | 4 | 19 | 1
CCCCCCCCCCCCCC(=O)OCC(COC(=O)CCCCCCCCCCCCC)OC(=O)CCCCCCCCCCCCC [TM, Trymyristin] | 1 | 3 | 1
CCCCCCCCCCCCCCCC(=O)OCC(COC(=O)CCCCCCCCCCCCCCC)OC(=O)CCCCCCCCCCCCCCC [TPaL, Tripalmitin] | 1 | 6 | 1
CCCCCCCCCCCCCCC(=O)OCC(COC(=O)CCCCCCCCCCCCCC)OC(=O)CCCCCCCCCCCCCC [TPeN, Tripentadecanoin] | 3 | 9 | 2

same assay, conditions: sum of the six IgA, IgG, IgM scores of day 7 and day 21; control KLH + Saline = 6

Compound | Ranking Total
CCCCCCCCCCCCCCCCCC(=O)OC[C@H](COP(=O)(O)OCCN)OC(=O)CCCCCCCCCCCCCCCCC [PES, L-α-Phosphatidylethanolamine, distearoyl] | 32
CCCCCCCCCCCCC/C=C/[C@@H](O)[C@H](CO)NC(=O)CCCCCCCCCCCCCCC [PS, N-Palmitoyl-d-sphigosine] | 64
CCCCCCCCCCCCCC(=O)OCC(COC(=O)CCCCCCCCCCCCC)OC(=O)CCCCCCCCCCCCC [TM, Trymyristin] | 17 and 16
CCCCCCCCCCCCCCCC(=O)OCC(COC(=O)CCCCCCCCCCCCCCC)OC(=O)CCCCCCCCCCCCCCC [TPaL, Tripalmitin] | 16
CCCCCCCCCCCCCCC(=O)OCC(COC(=O)CCCCCCCCCCCCCC)OC(=O)CCCCCCCCCCCCCC [TPeN, Tripentadecanoin] | 31

same assay, conditions: sum of the six IgA, IgG, IgM scores of day 7 and day 21; control KLH + Saline = 6; listed as TpaL

Compound | Ranking Total
CCCCCCCCCCCCCCCC(=O)OCC(COC(=O)CCCCCCCCCCCCCCC)OC(=O)CCCCCCCCCCCCCCC [TPaL, Tripalmitin] | 15

tested on: mesenteric lymph nodes; experiment: not given; format: in vivo, mice; conditions: 40 μg on SiO2 particles in 0.2 ml PBS per mouse per day intragastrically, days 1-3; KLH + cholera toxin days 7 and 14; killed day 21; control KLH+CT

Compound | Proliferative cellular response of mesenteric lymph nodes to KLH compared to control (FIG. 15)
CC/C=C\C/C=C\C/C=C\CCCCCCCC(=O)OCC(COC(=O)CCCCCCC/C=C\C/C=C\C/C=C\CC)OC(=O)CCCCCCC/C=C\C/C=C\C/C=C\CC [Trilinolenin] | strong proliferative response

same assay, conditions: mouse, in vivo

Compound | Proliferative cellular response of mesenteric lymph nodes to KLH compared to control (FIG. 15)
CCCCCCCC/C=C\CCCCCCCC(=O)OC[C@H](COP(=O)([O-])OCC[N+](C)(C)C)OC(=O)CCCCCCC/C=C\CCCCCCCC [Phosphatidycholine, dioleoyl, Phosphatidylcholine, dioleoyl] | strong proliferative response
